The data set is described as follows: photoluminescence quantum yield (fraction); solvent given as SMILES.
[1] abbreviates: in O=P(c1ccccc1)(c1ccccc1)c1ccccc1Oc1ccccc1P(=O)(c1ccccc1)c1ccccc1.

With `CCN(CC)c1ccc2cc(-c3cn4cc(OC)ccc4n3)c(=O)oc2c1`, for the setting “in ClC(Cl)Cl”, the photoluminescence quantum yield stood at 0.9.
On to `NCCCCCCCCCCCCN1C(=O)c2ccc3c4ccc5c6c(ccc(c7ccc(c2c37)C1=O)c64)C(=O)NC5=O`, for which the photoluminescence quantum yield (in CN(C)C=O) came out at 0.89.
Take `CN(C)c1ccc(/C=C/c2cc(/C=C/c3ccc(N(C)C)cc3)ncn2)cc1`: under “in ClCCl”, the photoluminescence quantum yield is 0.4.
Still for that read-out and setting: the same measure for `CCCCc1ccc2c(c1)c1ccc3cccc4c3c1c1c2c2cccc3ccc5c6cc(CCCC)ccc6c4c1c5c32`: 0.31.
`CC1=CC(C)=[N+]2C1=C(c1ccc(N3CCCCC3)cc1)c1c(C)cc(C)n1[B-]2(F)F`: the photoluminescence quantum yield runs as follows: (in C1CCOC1) 0.008; (in CC#N) 0.005; (in CC(=O)C(C)(C)C) 0.024; (in CC(C)=O) 0.002; (in CCCCCC) 0.384; (in CCOC(C)=O) 0.006.
For the molecule `C=CCOc1nnc(OCCC(F)(F)C(F)(F)C(F)(F)C(F)(F)C(F)(F)C(F)(F)C(F)(F)C(F)(F)F)nn1`, the photoluminescence quantum yield (in ClCCl) stood at 0.16 and the photoluminescence quantum yield (in OCC(F)(F)F) is 0.02.
In the case of `CNC(=O)[C@H](C)NC(=O)c1cccc2c1C#Cc1c(NC(=O)[C@@H](NC(C)=O)C(C)C)cccc1OCCCO2`, the photoluminescence quantum yield is, setting by setting: (in CC#N) 0.02; (in ClCCl) 0.03.
`COc1ccc(-c2oc3cccc4c5c(-c6ccc(OC)c(OC)c6)/c(=N/S(=O)(=O)C(F)(F)F)oc6cccc(c2c34)c65)cc1OC` had a photoluminescence quantum yield (in ClC(Cl)Cl) of 0.1.
As for `COC(=O)c1ccc(/C=C2\C=C(c3ccc([N+](=O)[O-])cc3)OC2=O)cc1`, the photoluminescence quantum yield (in C1COCCO1) came to 0.002.
Turning to `CC(C)(C)NC(=O)c1cc2ccc3cccc4ccc(c1C(=O)NC(C)(C)C)c2c34`, the photoluminescence quantum yield (in ClC(Cl)Cl) came out at 0.39.
Regarding `CCN(CC)c1ccc2c(c1)oc(=O)c1cc3c(-c4ccccc4)nn(C)c3nc12`, the photoluminescence quantum yield (in C1CCCCC1) was 0.338; the photoluminescence quantum yield (in CCOC(C)=O) was 0.202; the photoluminescence quantum yield (in CN(C)C=O) came out at 0.015; the photoluminescence quantum yield (in CO) was found to be 0.002; the photoluminescence quantum yield (in ClCCl) came to 0.292.
As for `CC(=O)NC(Cc1ccc(O)cc1)C(=O)O[Si]1(OC(=O)C(Cc2ccc(O)cc2)NC(C)=O)n2c3c4ccccc4c2/N=C2N=C(/N=c4/c5ccccc5/c(n41)=N/C1=NC(=N\3)/c3ccccc31)c1ccccc1\2` (stereo not drawn), the photoluminescence quantum yield (in CN(C)C=O) worked out at 0.26.
Consider `c1ccc(-c2nc(-c3ccccc3)nc(-c3cc(-n4c5ccccc5c5ccccc54)c(-n4c5ccccc5c5ccccc54)c(-n4c5ccccc5c5ccccc54)c3)n2)cc1`, for which the photoluminescence quantum yield was 0.82 (in O=P(c1ccccc1)(c1ccccc1)c1ccc2oc3ccc(P(=O)(c4ccccc4)c4ccccc4)cc3c2c1) and 1 under setting [1].
`O=c1[nH]c2[n+](c3ccccc13)[B-](F)(F)Oc1ccccc1-2`: the photoluminescence quantum yield turned out to be 0.201 (in CC#N) and 0.24 (in Cc1ccccc1).
The molecule `CCCCN(CCCC)c1ccc2c(c1)C#CC#Cc1cc(N(CCCC)CCCC)ccc1C#Cc1cc(c3cc1C#Cc1ccc(C(F)(F)F)cc1C#CC#Cc1cc(C(F)(F)F)ccc1C#C3)C#C2` returned a photoluminescence quantum yield (in ClCCl) of 0.15.
For `N#Cc1cnc(-c2c3ccccc3cc3ccccc23)nc1`, the photoluminescence quantum yield is 0.07 (in CCO) and 0.07 (in ClCCl).
`Cc1c2ccccc2c(C2=C3C=CC=[N+]3[B-](F)(F)n3cccc32)c2ccccc12`: the photoluminescence quantum yield reads like this: (in CC#N) 0.001; (in CCCCCC) 0.041; (in CCO) 0.002; (in CN(C)C=O) 0.002; (in Cc1ccccc1) 0.007; (in ClCCl) 0.005.
Turning to `CCN(CC)c1ccc2cc3ccc(=[N+](CC)CC)cc-3oc2c1`, the photoluminescence quantum yield runs as follows: (in CC#N) 0.85; (in CCO) 0.95; (in CN(C)C=O) 0.74; (in O) 0.94.
As for `CCCCN1C(=O)c2c(Br)c(Br)c3c4c(Br)c(Br)c5c6c(c(Br)c(Br)c(c7c(Br)c(Br)c(c2c37)C1=O)c64)C(=O)N(CCCC)C5=O`, the photoluminescence quantum yield (in ClC(Cl)Cl) turned out to be 0.01.
The molecule `COc1cc2oc(=O)c3c4ccc(C(=O)c5ccccc5)cc4c4ccc5cccc6c(c1)c2c3c4c56` showed a photoluminescence quantum yield (in C1CCOC1) of 0.448.
On to `O=S1(=O)C2=C(c3ccccc31)C1(C3=C(c4ccccc41)S(=O)(=O)c1ccccc13)c1ccccc12`, for which the photoluminescence quantum yield (in ClCCl) is 0.76.
On the same count and under the same terms, the same measure for `[O-][n+]1c(-c2ccccc2)cc(N2CCOCC2)nc1/C=C/c1ccccc1`: 0.2.
In turn, `CCN(CC)c1ccc(C=Cc2nc3nc4ccccc4nc3s2)cc1` came in with a photoluminescence quantum yield (in CCO) of 0.36.
Turning to `CCC1=C(C)C(=O)n2c1cc1[nH]c(C(=O)OC(C)(C)C)c(C)c1c2=O`, the photoluminescence quantum yield runs as follows: (in C1CCCCC1) 0.03; (in CO) 0.71; (in CS(C)=O) 0.86; (in ClC(Cl)Cl) 0.72; (in c1ccccc1) 0.16.
The molecule `N#Cc1cc(C#N)c(-n2c3ccccc3c3cc(-c4cccc5c4c4ccccc4n5-c4cc(-n5c6ccccc6c6ccccc65)c(C#N)cc4C#N)ccc32)cc1-n1c2ccccc2c2ccccc21` had a photoluminescence quantum yield under setting [1] of 0.66.
For the molecule `CCOC(=O)COc1ccc(/C=C/C2=C3C(C)=CC(C)=[N+]3[B-](F)(F)n3c2c2ccccc2c3-c2[nH]c(C)cc2C)cc1`, the photoluminescence quantum yield (in ClCCl) amounted to 0.01.
`CC1(C)c2ccccc2N(c2ccc(-c3nc([C@]45CC6CC(C[C@@H](C6)C4)C5)nc([C@]45C[C@H]6C[C@@H](C[C@H](C6)C4)C5)n3)cc2)c2ccccc21`: the photoluminescence quantum yield (in CC(C)(C)c1ccc(-n2c3ccc([Si](c4ccccc4)(c4ccccc4)c4ccccc4)cc3c3cc([Si](c4ccccc4)(c4ccccc4)c4ccccc4)ccc32)cc1) turned out to be 0.83.
Turning to `CC(C)(C)NC1=CC2=c3cc(NC(C)(C)C)c4nc(C(F)(F)C(F)(F)C(F)(F)F)nc5c(NC(C)(C)C)cc(c3c54)C3=CC(NC(C)(C)C)=C4N=C(C(F)(F)C(F)(F)C(F)(F)F)N=C1C4C32` (stereo not drawn), the photoluminescence quantum yield (in C1CCOC1) is 0.25.
Take `c1ccc(-c2nc(-c3ccc(N(c4ccccc4)c4ccccc4)cc3)n3ccccc23)cc1`: under “in ClCCl”, the photoluminescence quantum yield came to 0.127.
`CCCn1c2cccc3oc4cccc5oc6cccc1c6[c+](c45)c32` returned a photoluminescence quantum yield (in CC#N) of 0.49, a photoluminescence quantum yield (in CO) of 0.54, a photoluminescence quantum yield (in ClCCl) of 0.59 and a photoluminescence quantum yield (in OCC(O)CO) of 0.47.
Turning to `COc1cc(C=C(C#Cc2ccccc2)C#Cc2ccccc2)c(OC)cc1C=C(C#Cc1ccccc1)C#Cc1ccccc1`, the photoluminescence quantum yield (in ClC(Cl)Cl) came out at 0.34.
For the molecule `CCCCN1C(=O)c2cc(Oc3ccc(C(C)(C)C)cc3)c3c4c(Oc5ccc(C(C)(C)C)cc5)cc5c(=O)[nH]/c(=C\c6ccc7ccccc7n6)c6cc(Oc7ccc(C(C)(C)C)cc7)c(c7c(Oc8ccc(C(C)(C)C)cc8)cc(c2c37)C1=O)c4c56`, the photoluminescence quantum yield runs as follows: (in C1CCOC1) 0.3; (in Cc1ccccc1) 0.313; (in ClCCl) 0.332.
For the molecule `CCOCCOCCOC(=O)/C=C/C1=CC2=C(c3c(C)cc(C)cc3C)c3cccn3[B-](F)(F)[N+]2=C1`, the photoluminescence quantum yield (in ClCCl) was found to be 0.35.
For `CCCCC1=Cc2c3ccc4cccc5ccc(c6cc(-c7ccccc7)n(c26)P1(=O)c1ccccc1)c3c45` (stereo not drawn), the photoluminescence quantum yield came to 0.64 (in C1CCCCC1); 0.51 (in C1CCOC1); 0.55 (in C1COCCO1); 0.54 (in CC#N); 0.56 (in CC(C)=O); 0.51 (in CO). The photoluminescence quantum yield reads like this: (in Cc1ccccc1) 0.6; (in ClC(Cl)Cl) 0.56; (in ClCCl) 0.57.

(Values after the Deep4Chem optical property database.)
